Patent US11492644B2, “Genetically induced nephron progenitors” (MURDOCH CHILDRENS RESEARCH INSTITUTE, priority 2017, dated 2022)

Test system: Cited1
Assay: In situ reprogramming by renal pelvis hydrodynamic injection
Format: in vivo, mouse
Details: Cited1-CreERT2 BAC transgenic mice, 72 h post-injection
Description: Renal pelvis hydrodynamic injection was performed as previously described (Woodard et al Sci Rep 2017, Woodard et al J. Vis. Exp. 2017) on 15 week-old Cited1-CreER^T2 BAC transgenic mice (Boyle et al Dev. Biol. 2008). Mice were assayed for presence of the GFP transgene at weaning (Transnetyx, Cordova, Tenn.). A solution of 50 ug of pT-mSES in 100 uL of buffer QR (Minis Bio, Madison, Wis.) was injected quickly into the renal pelvis of mice anesthetized with ketamine/xylazine. Mice were treated every 8-12 h with buprenorphine for pain management for 48 h and sacrificed at 72 h post-injection.
There were eGFP-positive cells with a similar morphology present in both QR-injected and pT-mSES-injected transgenic animals (FIG. 16, panels a and b). However, only in the pT-mSES-injected transgenic animals were there cells appearing to be derived from tubule-like structures that were eGFP-positive (FIG. 16c). In contrast, in wild-type, non-transgenic mice receiving either QR or pT-mSES, no positive eGFP cells could be found. Therefore, cellular reprogramming to an induced nephron progenitor state may be possible in vivo following gene delivery of Snai2, Six1 and Eya1.

pT-mSES: piggyBac transposon plasmid (SEQ ID NO:12) expressing mouse Six1, Snai2 and Eya1 from the elongation factor 1 alpha promoter
eGFP expression from the Cited1 promoter: induced eGFP expression indicative of Cited1 positivity
